The text below walks through data of patent US12326385B2, “Cell-permeable fluorogenic fluorophores” (MAX-PLANCK-GESELLSCHAFT ZUR FÖRDERUNG DER WISSENSCHAFTEN E. …, priority 2018, dated 2025).

Marks after values point to notes of the source that are not given here.

The test system of data set [1] is F-actin. In words: In vitro absorbance and fluorescence response on binding to actin. It is filed as biochemical. Conditions: for ε: general actin buffer; for F/F0: ± s.e.m.; for increase in absorbance / increase in fluorescence intensity: upon binding to F-actin, in vitro.
The test system of data set [2] is F-actin in U2OS cells. In words: No-wash live-cell imaging of F-actin. It is filed as cell-based. An excerpt:
Fluorescent probes for live-cell imaging of cytoskeletal structures have become important tools in the life sciences. In particular, the far-red, SiR-based probes for F-actin (SiR-actin) and microtubules (SiR-tubulin) have become popular as they are fluorogenic and enable no-wash imaging with little background signal. SiR-actin and SiR-tubulin are based on SiR linked to the F-actin-binder jasplakinolide and microtubule-binder docetaxel, respectively. Binding to their targets shifts for both probes the equilibrium between the cell-permeable spirolactone and the fluorescent zwitterion towards the fluorescent form. To generate fluorescent stains for F-actin and microtubule in different colors, the inventors coupled jasplakinolide and docetaxel to 6-TAMRA and its N,N-dimethylsulfamide derivative (probes 169 and 172, named MaP555-actin and MaP555-tubulin in the following). […] The specificity of MaP555-actin and MaP555-tubulin was further confirmed by co-staining with SiR-actin and SiR-tubulin. […] Similarly, binding of MaP555-tubulin to microtubules caused a high increase in absorbance (5.8-fold) and fluorescence (11-fold).
In addition, the inventors coupled the acyl sulfonamide of carbopyronine to jasplakinolide, yielding the actin probe MaP618-actin (171).

Setting [3] is: 0.2% SDS in general actin buffer.
Setting [4] is: MaP618-actin, orange fluorescence.

Turning to `C/C1=C\CC[C@H](C)OC(=O)C[C@H](c2ccc(O)cc2)NC(=O)[C@@H](Cc2c[nH]c3ccccc23)N(C)C(=O)[C@H](CCCCNC(=O)CCCCCNC(=O)c2ccc3c(c2)C2(c4ccc(N(C)C)cc4Oc4cc(N(C)C)ccc42)N(S(=O)(=O)N(C)C)C3=O)NC(=O)[C@@H](C)C1` [compound 169], in data set [1] (setting [3]), the Φ was found to be 0.49 and the “ε^SDS” value is 103,000 M^−1cm^−1. Moreover, in data set [1] (binding with actin), the Φ stood at 0.57, the “ε^protein” value is on record as 95,000 M^−1cm^−1, the λabs is reported as 558 and the λem is reported as 580. In addition, in data set [1], the ε is 3,600 M^−1cm^−1, the increase in absorbance was found to be 26 fold and the “increase in fluorescence intensity” value was found to be 107 fold. Besides, the F/F0 in data set [1] (ratio of fluorescence intensities at 580 nm in the presence and absence of actin) is 107 ± 9.6^m. For the same compound, in data set [2], the “live-cell staining of F-actin” value is listed as “enabled no-wash, high-contrast staining”.

Take `C/C1=C\CC[C@H](C)OC(=O)C[C@H](c2ccc(O)cc2)NC(=O)[C@@H](Cc2c[nH]c3ccccc23)N(C)C(=O)[C@H](CCCCNC(=O)CCCCCNC(=O)c2ccc3c(c2)C2(c4ccc(N(C)C)cc4C(C)(C)c4cc(N(C)C)ccc42)N(S(C)(=O)=O)C3=O)NC(=O)[C@@H](C)C1` [compound 171]: in data set [1] (setting [3]), the Φ was found to be 0.71 and the “ε^SDS” value is listed as 24,000^i M^−1cm^−1. In data set [1] (setting [4]), this compound gave a λem of 635 nm and a λex of 618 nm. Besides, in data set [1] (binding with actin), the Φ was 0.78, the “ε^protein” value was 61,000 M^−1cm^−1, the λabs was determined as 618 and the λem is given as 635. Besides, in data set [1], the ε was 500 M⁻¹ cm⁻¹, the increase in absorbance worked out at 122 fold and the “increase in fluorescence intensity” value is 449 fold. Moreover, the “fluorogenicity relative to SiR-actin” value in data set [1] (incubation with F-actin) is recorded as “about four times more fluorogenic”. For the same compound, the F/F0 in data set [1] (ratio of fluorescence intensities at 635 nm in the presence and absence of actin) is listed as 449 ± 6.8^j. For the same compound, in data set [2], the “live-cell staining of F-actin” value is recorded as “clearly reveal F-actin structures”.
